Experiments:
Type in all cases: in vivo
[1] = system: Dirofilaria immitis; experiment: Larval motility assay on Dirofilaria immitis; conditions: 72 h, read-out: percent motility inhibition
Method: Larval Motility Assay on Dirofilaria immitis
Five hundred L1 stage larvae of D. immitis were diluted in a predetermined conditioned medium and introduced into each well of a 96-well plate. DMSO diluted solutions of various compounds of the present invention were added at the final concentration of 50 ppm to the wells of the 96-well plate. The plate was allowed to stand for 3 days, and then larval motility was examined. The percent motility inhibition in the wells of each treatment was calculated relative to the wells of treatment with DMSO only.

[2] = system: Rhipicephalus sanguineus; experiment: Assay for transdermal parasiticidal activity against nymphs of Rhipicephalus sanguineus; conditions: 48 h, read-out: mortality rate
Source text: Assay for Transdermal Parasiticidal Activity Against Nymphs of Rhipicephalus sanguineus
DMSO diluted solutions of various compounds of the present invention were individually diluted to the final concentration of 100 ppm with an acetone/triton mixture and applied to the inside of vented sample bottles. After overnight drying, ten nymphs of R. sanguineus were introduced into each bottle, and the mortality rate was examined two days later. Aberrant adults were regarded as the dead.

[3] = system: Laodelphax striatellus; experiment: whole plant or invertebrate; conditions: 192 h, rice seedlings dipped 30 seconds, 3rd-instar larvae, 8 days after inoculation, read-out: insecticidal efficacy (corrected mortality rate), activity level
[4] = system: Haemonchus contortus; experiment: Larval motility assay on Haemonchus contortus; conditions: 96 h, L1 stage larvae, 4 days, relative to DMSO only, read-out: percent motility inhibition
Method: Larval Motility Assay on Haemonchus contortus
DMSO diluted solutions of various compounds of the present invention were added at the final concentration of 50 ppm to the wells of a 96-well plate containing a predetermined conditioned medium. Twenty L1 stage larvae of H. contortus were introduced into each well of the 96-well plate. The plate was allowed to stand for 4 days, and then larval motility was examined. The percent motility inhibition in the wells of each treatment was calculated relative to the wells of treatment with DMSO only.

[5] = system: Plutella xylostella; experiment: whole plant or invertebrate; conditions: in Brassica rapa, 144 h, seedlings with laid eggs dipped about 30 seconds, 25° C., 6 days after dip treatment, read-out: insecticidal efficacy (corrected mortality rate), activity level

SMILES	inhibition at 50 ppm [1]	mortality at 100 ppm [2]	mortality at 500 ppm [3]	inhibition at 50 ppm [4]	mortality at 500 ppm [5]
CCS(=O)(=O)c1cc(-c2noc(C3(C(F)(F)F)CC3)n2)cnc1-c1nc2cc(C(F)(F)C(F)(F)F)nnc2n1C [Compound 1-2, 3-(5-(ethylsulfonyl)-6-(3-methyl-6-pentafluoroethyl-3[ ]-imidazo[4,5-c]pyridazin-2-yl)pyridin-3-yl)-5-(1-trifluoromethylcyclopropyl)-1,2,4-oxadiazole]	≥ 50%	≥ 50%	100%	≥ 50%	100%
CCS(=O)(=O)c1cc(-c2noc(C3(c4ccccc4)CC3)n2)cnc1-c1nc2cc(C(F)(F)C(F)(F)F)nnc2n1C [Compound 1-3]	≥ 50%	≥ 50%	100%	≥ 50%	100%
CCS(=O)(=O)c1cc(-c2noc(C3CC3C)n2)cnc1-c1nc2cc(C(F)(F)C(F)(F)F)nnc2n1C (stereo not drawn) [Compound 1-1]	≥ 50%		100%	≥ 50%	100%
CCS(=O)(=O)c1cc(-c2noc(C3(C)CC3)n2)cnc1-c1nc2cc(C(F)(F)C(F)(F)F)nnc2n1C [Compound 1-4]	≥ 50%		100%	≥ 50%	100%

Source: patent US12516062B2, “Agricultural or horticultural insecticide or animal ectoparasite or endoparasite control agent each comprising an imidazopyridazine compound having a substituted cyclopropane-oxadiazole group or a salt thereof as active ingredient, and method for using the insecticide or the control agent” (NIHON NOHYAKU CO., LTD., priority 2019, dated 2026)
